# System: MDCK
# Description: TP_TRANSPORTER: transepithelial transport (basal to apical) in Ntcp/Bsep double transfected MDCK cell
compound,measurement,value
C[C@H](CCC(=O)NCCS(=O)(=O)O)[C@H]1CC[C@H]2[C@@H]3[C@H](O)C[C@@H]4C[C@H](O)CC[C@]4(C)[C@H]3C[C@H](O)[C@]12C,Km,22.2 µM
